Source: PubChem BioAssay (NCI)
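Tested at 5 concentrations; 48 h exposure; 96-well plates; endpoints linearly interpolated, else capped at highest concentration. At the TGI there is no net growth.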

How the values were obtained:
Experiment in all cases: inhibition of tumour cell growth, NCI panel, 48 h
786-0 renal = tested on: 786-0 renal
BT-549 breast = tested on: BT-549 breast
CAKI-1 renal = tested on: CAKI-1 renal
DU-145 prostate = tested on: DU-145 prostate
KM12 colon = tested on: KM12 colon
NCI-H522 lung = tested on: NCI-H522 lung
PC-3 prostate = tested on: PC-3 prostate
SF-295 CNS = tested on: SF-295 CNS
SK-MEL-28 melanoma = tested on: SK-MEL-28 melanoma
T-47D breast = tested on: T-47D breast

Molecule `Cc1nn2c(=O)c([N+](=O)[O-])c(/C=C/c3ccccc3)nc2s1` has a TGI (786-0 renal) of over 100 µM, a TGI (BT-549 breast) of 7.86 µM and a TGI (CAKI-1 renal) of over 100 µM. For the same molecule, the TGI (DU-145 prostate) was over 100 µM, the TGI (KM12 colon) was 11 µM and the TGI (NCI-H522 lung) was 12 µM. For the same molecule, the TGI (PC-3 prostate) was over 100 µM, the TGI (SF-295 CNS) was over 100 µM and the TGI (SK-MEL-28 melanoma) was 64.2 µM. It also gave a TGI (T-47D breast) of over 100 µM.
With `C=C(c1ccccc1)C1ON(C)CCc2cc(OC)c(OC)cc21` (stereo not given) the TGI (786-0 renal) was over 100 µM, the TGI (BT-549 breast) was over 100 µM and the TGI (CAKI-1 renal) was over 100 µM. For the same molecule, the TGI (DU-145 prostate) was over 100 µM, the TGI (KM12 colon) was over 100 µM and the TGI (NCI-H522 lung) was over 100 µM. For the same molecule, the TGI (PC-3 prostate) was over 100 µM, the TGI (SF-295 CNS) was over 100 µM and the TGI (SK-MEL-28 melanoma) was over 100 µM. The TGI (T-47D breast) was over 100 µM.
Molecule `NCCCCNCCCN1CC1` has a TGI (786-0 renal) of 5.75 µM, a TGI (BT-549 breast) of 17.4 µM and a TGI (CAKI-1 renal) of 0.382 µM. For the same molecule, the TGI (DU-145 prostate) was over 29.6 µM, the TGI (KM12 colon) was 24.4 µM and the TGI (NCI-H522 lung) was 19.9 µM. For the same molecule, the TGI (PC-3 prostate) was over 100 µM, the TGI (SF-295 CNS) was over 100 µM and the TGI (SK-MEL-28 melanoma) was over 26 µM. It also gave a TGI (T-47D breast) of 3.46 µM.
`Oc1ccccc1/C=N/Nc1nnc2c3ccccc3c3ccccc3c2n1` was tested, and the TGI (786-0 renal) was over 100 µM, the TGI (BT-549 breast) was over 100 µM and the TGI (CAKI-1 renal) was over 100 µM. It also gave a TGI (DU-145 prostate) of over 100 µM, a TGI (KM12 colon) of over 100 µM and a TGI (NCI-H522 lung) of 54.1 µM. It also gave a TGI (PC-3 prostate) of over 100 µM, a TGI (SF-295 CNS) of over 100 µM and a TGI (SK-MEL-28 melanoma) of over 100 µM. It also gave a TGI (T-47D breast) of over 100 µM.
In the case of `c1csc(-c2cscc2-c2ccsc2)c1`, the TGI (786-0 renal) was over 100 µM, the TGI (BT-549 breast) was over 100 µM and the TGI (CAKI-1 renal) was over 100 µM. It also gave a TGI (DU-145 prostate) of over 100 µM, a TGI (KM12 colon) of over 85.6 µM and a TGI (NCI-H522 lung) of over 100 µM. The TGI (PC-3 prostate) was over 77.9 µM, the TGI (SF-295 CNS) was over 100 µM and the TGI (SK-MEL-28 melanoma) was over 100 µM. For the same molecule, the TGI (T-47D breast) was over 100 µM.
For `C[C@@]12C=CC3C/C(=N\C(N)=S)C=C(CCCC4OCCO4)[C@]3(CC1)C2` (stereo not given in full), the TGI (786-0 renal) was 57.1 µM, the TGI (BT-549 breast) was 51.9 µM and the TGI (CAKI-1 renal) was 69.9 µM. For the same molecule, the TGI (DU-145 prostate) was 78.6 µM, the TGI (KM12 colon) was over 100 µM and the TGI (NCI-H522 lung) was 22.9 µM. It also gave a TGI (PC-3 prostate) of 50.7 µM, a TGI (SF-295 CNS) of 88 µM and a TGI (SK-MEL-28 melanoma) of 35 µM. The TGI (T-47D breast) was 57.9 µM.
For `Cc1c2cnccc2c(C)c2c1[nH]c1ccc(O)cc12`, the TGI (786-0 renal) was 1.42 µM, the TGI (BT-549 breast) was over 10 µM and the TGI (CAKI-1 renal) was over 10 µM. For the same molecule, the TGI (DU-145 prostate) was 5.83 µM, the TGI (KM12 colon) was 2.34 µM and the TGI (NCI-H522 lung) was over 10 µM. The TGI (PC-3 prostate) was over 10 µM, the TGI (SF-295 CNS) was 5.57 µM and the TGI (SK-MEL-28 melanoma) was 9.94 µM. The TGI (T-47D breast) was over 10 µM.
`COc1ccc(C2c3cc4c(cc3C(O)C3CCC(=O)N23)OCO4)cc1` (stereo not given) gave a TGI (786-0 renal) of over 100 µM, a TGI (BT-549 breast) of over 100 µM and a TGI (CAKI-1 renal) of over 100 µM. For the same molecule, the TGI (DU-145 prostate) was over 100 µM, the TGI (KM12 colon) was over 100 µM and the TGI (NCI-H522 lung) was over 100 µM. For the same molecule, the TGI (PC-3 prostate) was over 100 µM, the TGI (SF-295 CNS) was over 100 µM and the TGI (SK-MEL-28 melanoma) was over 100 µM. For the same molecule, the TGI (T-47D breast) was over 100 µM.
`CCCCCC(=O)Nc1n[nH]nc1C(N)=O` showed a TGI (786-0 renal) of over 100 µM, a TGI (BT-549 breast) of over 100 µM and a TGI (CAKI-1 renal) of over 100 µM. The TGI (DU-145 prostate) was over 100 µM, the TGI (KM12 colon) was over 100 µM and the TGI (NCI-H522 lung) was over 100 µM. It also gave a TGI (PC-3 prostate) of over 100 µM, a TGI (SF-295 CNS) of over 100 µM and a TGI (SK-MEL-28 melanoma) of over 100 µM. The TGI (T-47D breast) was over 100 µM.
Work on `O=C1CC(=O)NC(=NN2C(=O)CSC2c2ccc(Cl)c(Cl)c2)N1` (stereo not given) yielded a TGI (786-0 renal) of over 100 µM, a TGI (BT-549 breast) of over 100 µM and a TGI (CAKI-1 renal) of over 100 µM. The TGI (DU-145 prostate) was over 100 µM, the TGI (KM12 colon) was over 100 µM and the TGI (NCI-H522 lung) was over 100 µM. For the same molecule, the TGI (PC-3 prostate) was over 100 µM, the TGI (SF-295 CNS) was over 100 µM and the TGI (SK-MEL-28 melanoma) was over 100 µM. For the same molecule, the TGI (T-47D breast) was over 100 µM.
Molecule `Fc1cc(C2=C[C@H](c3ccc(Cl)cc3)NC(=S)N2)c(Cl)cc1Cl` has a TGI (786-0 renal) of over 100 µM, a TGI (BT-549 breast) of over 100 µM and a TGI (CAKI-1 renal) of over 100 µM. The TGI (DU-145 prostate) was over 100 µM, the TGI (KM12 colon) was over 100 µM and the TGI (NCI-H522 lung) was over 100 µM. The TGI (PC-3 prostate) was over 100 µM, the TGI (SF-295 CNS) was over 100 µM and the TGI (SK-MEL-28 melanoma) was over 100 µM. It also gave a TGI (T-47D breast) of over 100 µM.
For `O=C(O)C1C(C(=O)O)C2C(=O)C=CC1N2Cc1ccccc1` (stereo not given), the TGI (786-0 renal) was 11.7 µM, the TGI (BT-549 breast) was 17.4 µM and the TGI (CAKI-1 renal) was 14.5 µM. It also gave a TGI (DU-145 prostate) of 6.17 µM, a TGI (KM12 colon) of 12.7 µM and a TGI (NCI-H522 lung) of 3.78 µM. The TGI (PC-3 prostate) was 18.8 µM, the TGI (SF-295 CNS) was 23.4 µM and the TGI (SK-MEL-28 melanoma) was 15.5 µM. It also gave a TGI (T-47D breast) of 15.2 µM.
For `CC1C2CC(CC(=O)N2)C1(C)C` (stereo not given), the TGI (786-0 renal) was over 100 µM, the TGI (BT-549 breast) was over 100 µM and the TGI (CAKI-1 renal) was over 100 µM. It also gave a TGI (DU-145 prostate) of over 100 µM, a TGI (KM12 colon) of over 100 µM and a TGI (NCI-H522 lung) of over 100 µM. The TGI (PC-3 prostate) was over 100 µM, the TGI (SF-295 CNS) was over 100 µM and the TGI (SK-MEL-28 melanoma) was over 100 µM. For the same molecule, the TGI (T-47D breast) was over 100 µM.
In the case of `CCOC(=O)c1ccc(C(=O)OCC)n1-c1cc2cc(c1)CSCc1cc(cc(-n3c(C(=O)OCC)ccc3C(=O)OCC)c1)CSC2`, the TGI (786-0 renal) was over 10 µM, the TGI (BT-549 breast) was over 10 µM and the TGI (CAKI-1 renal) was over 10 µM. It also gave a TGI (DU-145 prostate) of over 10 µM, a TGI (KM12 colon) of over 10 µM and a TGI (NCI-H522 lung) of over 10 µM. The TGI (PC-3 prostate) was over 10 µM, the TGI (SF-295 CNS) was over 10 µM and the TGI (SK-MEL-28 melanoma) was over 10 µM. The TGI (T-47D breast) was over 10 µM.
Molecule `CSc1nc2ccccc2c(=O)n1/N=C1\C(=O)N(CN2CCCCC2)c2ccc(Cl)cc21` has a TGI (786-0 renal) of 69 µM, a TGI (BT-549 breast) of 80.7 µM and a TGI (CAKI-1 renal) of over 100 µM. It also gave a TGI (DU-145 prostate) of 42.7 µM, a TGI (KM12 colon) of over 100 µM and a TGI (NCI-H522 lung) of 37.3 µM. The TGI (PC-3 prostate) was over 100 µM, the TGI (SF-295 CNS) was over 100 µM and the TGI (SK-MEL-28 melanoma) was over 100 µM. For the same molecule, the TGI (T-47D breast) was 54.8 µM.
